Laboratory results taken from the supplement of paper PMC8612539.
≈ marks a conversion by molar mass, not a printed value.

System: Pasteurella multocida
Experiment: minimum inhibitory concentration (MIC)
Method: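 Broth microdilution MIC (Sensititre BOPO7F bovine plate, CLSI methods) of 19 antimicrobials against field isolates of P. multocida, M. haemolytica, H. somni (deep nasopharyngeal swabs) and E. coli, Enterococcus spp. (rectal swabs) from weaned dairy heifers. Incubation 16-24 h at 35 C. MIC is the lowest concentration preventing visible growth. Values with <= or > lie at the tested range limits. Trimethoprim-sulfamethoxazole is given as the trimethoprim component of a 1:19 mixture.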

CO/N=C(\C(=O)N[C@@H]1C(=O)N2C(C(=O)O)=C(CSC(=O)c3ccco3)CS[C@H]12)c1csc(N)n1 [Ceftiofur]
Conditions | minimum inhibitory concentration [µg/mL]
isolate (source animal id): 10 | ≤ 0.25
isolate (source animal id): 11 | ≤ 0.25
isolate (source animal id): 12 | ≤ 0.25
isolate (source animal id): 19 | ≤ 0.25
isolate (source animal id): 23 | ≤ 0.25
isolate (source animal id): 26 | ≤ 0.25
isolate (source animal id): 98 | ≤ 0.25
isolate (source animal id): 104 | ≤ 0.25
isolate (source animal id): 115 | ≤ 0.25
isolate (source animal id): 117 | ≤ 0.25
isolate (source animal id): 118 | ≤ 0.25
isolate (source animal id): 121 | ≤ 0.25
isolate (source animal id): 124 | ≤ 0.25
isolate (source animal id): 125 | ≤ 0.25
isolate (source animal id): 128 | ≤ 0.25
isolate (source animal id): 131 | ≤ 0.25
isolate (source animal id): 135 | ≤ 0.25
isolate (source animal id): 136 | ≤ 0.25
isolate (source animal id): 140 | ≤ 0.25
isolate (source animal id): 144 | ≤ 0.25
isolate (source animal id): 146 | ≤ 0.25
isolate (source animal id): 150 | ≤ 0.25
isolate (source animal id): 151 | ≤ 0.25
isolate (source animal id): 153 | ≤ 0.25
isolate (source animal id): 155 | ≤ 0.25
isolate (source animal id): 157 | ≤ 0.25
isolate (source animal id): 160 | ≤ 0.25
isolate (source animal id): 164 | ≤ 0.25
isolate (source animal id): 165 | ≤ 0.25
isolate (source animal id): 167 | ≤ 0.25
isolate (source animal id): 168 | ≤ 0.25
isolate (source animal id): 169 | ≤ 0.25
isolate (source animal id): 170 | ≤ 0.25
isolate (source animal id): 171 | ≤ 0.25
isolate (source animal id): 172 | ≤ 0.25
isolate (source animal id): 173 | ≤ 0.25
isolate (source animal id): 174 | ≤ 0.25
isolate (source animal id): 175 | 1 (≈ 1.91 µM)
isolate (source animal id): 176 | ≤ 0.25
isolate (source animal id): 177 | ≤ 0.25
isolate (source animal id): 178 | ≤ 0.25
isolate (source animal id): 179 | ≤ 0.25
isolate (source animal id): 182 | ≤ 0.25
isolate (source animal id): 192 | ≤ 0.25
isolate (source animal id): 193 | ≤ 0.25
isolate (source animal id): 195 | ≤ 0.25
isolate (source animal id): 196 | ≤ 0.25
isolate (source animal id): 197 | ≤ 0.25
isolate (source animal id): 198 | ≤ 0.25
isolate (source animal id): 199 | ≤ 0.25
isolate (source animal id): 200 | ≤ 0.25
isolate (source animal id): 201 | ≤ 0.25
isolate (source animal id): 203 | ≤ 0.25
isolate (source animal id): 204 | ≤ 0.25
isolate (source animal id): 205 | ≤ 0.25
isolate (source animal id): 206 | ≤ 0.25
isolate (source animal id): 207 | ≤ 0.25
isolate (source animal id): 208 | ≤ 0.25
isolate (source animal id): 209 | ≤ 0.25
isolate (source animal id): 210 | ≤ 0.25
isolate (source animal id): 213 | ≤ 0.25
isolate (source animal id): 216 | ≤ 0.25
isolate (source animal id): 223 | ≤ 0.25
isolate (source animal id): 227 | ≤ 0.25
isolate (source animal id): 229 | ≤ 0.25
isolate (source animal id): 233 | ≤ 0.25
isolate (source animal id): 234 | ≤ 0.25
isolate (source animal id): 237 | ≤ 0.25
isolate (source animal id): 241 | ≤ 0.25
isolate (source animal id): 245 | ≤ 0.25
isolate (source animal id): 247 | ≤ 0.25
isolate (source animal id): 250 | ≤ 0.25
isolate (source animal id): 254 | ≤ 0.25
isolate (source animal id): 255 | ≤ 0.25
isolate (source animal id): 258 | ≤ 0.25
isolate (source animal id): 261 | ≤ 0.25
isolate (source animal id): 262 | ≤ 0.25
isolate (source animal id): 269 | ≤ 0.25
isolate (source animal id): 270 | ≤ 0.25
isolate (source animal id): 274 | ≤ 0.25
isolate (source animal id): 275 | ≤ 0.25
isolate (source animal id): 276 | ≤ 0.25
isolate (source animal id): 277 | ≤ 0.25
isolate (source animal id): 278 | ≤ 0.25
isolate (source animal id): 279 | ≤ 0.25
isolate (source animal id): 280 | ≤ 0.25
isolate (source animal id): 284 | ≤ 0.25
isolate (source animal id): 285 | ≤ 0.25
isolate (source animal id): 287 | ≤ 0.25
isolate (source animal id): 290 | ≤ 0.25
isolate (source animal id): 294 | ≤ 0.25
isolate (source animal id): 295 | ≤ 0.25
isolate (source animal id): 296 | ≤ 0.25
isolate (source animal id): 307 | ≤ 0.25
isolate (source animal id): 310 | ≤ 0.25
isolate (source animal id): 311 | ≤ 0.25
isolate (source animal id): 312 | ≤ 0.25
isolate (source animal id): 313 | ≤ 0.25
isolate (source animal id): 315 | ≤ 0.25
isolate (source animal id): 316 | ≤ 0.25
